In the supplement of paper PMC11061612:

Tests used:
A673 (Ewing's Sarcoma) [1] = assay: Bliss excess, mean over the matrix (fraction); higher = more synergy
In short: (§1)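 Bliss excess equals the observed combination effect minus the expected value EA + EB − EA·EB, where EA and EB are the effects of each agent alone. Combination Emax is the second-highest inhibition within the matrix. Inhibition was scaled from CellTiter-Glo 2.0 luminescence, with 0 set by vehicle wells and 1 by blank wells, after 72 hours of two-drug dosing of cells plated in 1536-well plates.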

[2] = system: BE-13 (T-Lymphoblastic Leukemia); assay: as above
In short: as §1

CAL-72 (Osteosarcoma) [3] = assay: as above
In short: as §1

[4] = system: ESS-1 (Other Solid Carcinomas); assay: as above
In short: as §1

EW-11 (Ewing's Sarcoma) [5] = assay: as above
In short: as §1

GAMG (Glioblastoma) [6] = assay: as above
In short: as §1

[7] = system: HH (T-Cell Non-Hodgkin's Lymphoma); assay: as above
In short: as §1

[8] = system: HuCCT1 (Biliary Tract Carcinoma); assay: as above
In short: as §1

KS-1 (Glioblastoma) [9] = assay: as above
In short: as §1

[10] = system: KYAE-1 (Esophageal Adenocarcinoma); assay: as above
In short: as §1

[11] = system: LNZTA3WT4 (Low Grade Glioma); assay: as above
In short: as §1

LOXIMVI (Melanoma) [12] = assay: as above
In short: as §1

[13] = system: LS-123 (Colorectal Carcinoma); assay: as above
In short: as §1

MPP-89 (Mesothelioma) [14] = assay: as above
In short: as §1

[15] = system: NCI-H524 (Small Cell Lung Carcinoma); assay: as above
In short: as §1

[16] = system: OVCAR-5 (Ovarian Carcinoma); assay: as above
In short: as §1

[17] = system: SAS (Oral Cavity Carcinoma); assay: as above
In short: as §1

[18] = system: SNU-16 (Gastric Carcinoma); assay: as above
In short: as §1

[19] = system: SNU-449 (Hepatocellular Carcinoma); assay: as above
In short: as §1

[20] = system: SW1710 (Bladder Carcinoma); assay: as above
In short: as §1

[21] = system: TGBC1TKB (Biliary Tract Carcinoma); assay: as above
In short: as §1

[22] = system: WSU-NHL (B-Cell Non-Hodgkin's Lymphoma); assay: as above
In short: as §1

[23] = system: YAPC (Pancreatic Carcinoma); assay: as above
In short: as §1

A673 (Ewing's Sarcoma) [24] = assay: combination Emax (second highest fraction inhibited in the dose matrix, 72 h); higher = more inhibition; extreme values may be limits of the assay
In short: as §1

[25] = system: BE-13 (T-Lymphoblastic Leukemia); assay: as above
In short: as §1

CAL-72 (Osteosarcoma) [26] = assay: as above
In short: as §1

[27] = system: ESS-1 (Other Solid Carcinomas); assay: as above
In short: as §1

EW-11 (Ewing's Sarcoma) [28] = assay: as above
In short: as §1

GAMG (Glioblastoma) [29] = assay: as above
In short: as §1

[30] = system: HH (T-Cell Non-Hodgkin's Lymphoma); assay: as above
In short: as §1

[31] = system: HuCCT1 (Biliary Tract Carcinoma); assay: as above
In short: as §1

KS-1 (Glioblastoma) [32] = assay: as above
In short: as §1

[33] = system: KYAE-1 (Esophageal Adenocarcinoma); assay: as above
In short: as §1

[34] = system: LNZTA3WT4 (Low Grade Glioma); assay: as above
In short: as §1

LOXIMVI (Melanoma) [35] = assay: as above
In short: as §1

[36] = system: LS-123 (Colorectal Carcinoma); assay: as above
In short: as §1

MPP-89 (Mesothelioma) [37] = assay: as above
In short: as §1

[38] = system: NCI-H524 (Small Cell Lung Carcinoma); assay: as above
In short: as §1

[39] = system: OVCAR-5 (Ovarian Carcinoma); assay: as above
In short: as §1

[40] = system: SAS (Oral Cavity Carcinoma); assay: as above
In short: as §1

[41] = system: SNU-16 (Gastric Carcinoma); assay: as above
In short: as §1

[42] = system: SNU-449 (Hepatocellular Carcinoma); assay: as above
In short: as §1

[43] = system: SW1710 (Bladder Carcinoma); assay: as above
In short: as §1

[44] = system: TGBC1TKB (Biliary Tract Carcinoma); assay: as above
In short: as §1

[45] = system: WSU-NHL (B-Cell Non-Hodgkin's Lymphoma); assay: as above
In short: as §1

[46] = system: YAPC (Pancreatic Carcinoma); assay: as above
In short: as §1

Work on N#Cc1cnc(Nc2cc(NC[C@H]3CNCCO3)c(C(F)(F)F)cn2)cn1 [SRA737] + Nc1ccn([C@@H]2O[C@H](CO)[C@@H](O)C2(F)F)c(=O)n1 [Gemcitabine] (first compound max 10 µM, 7x7, partner max 0.3 µM) yielded a Bliss excess (A673 (Ewing's Sarcoma) [1]) of 0.0343, a Bliss excess [2] of 0.0965 and a Bliss excess (CAL-72 (Osteosarcoma) [3]) of 0.0042. The Bliss excess [4] was 0.0477, the Bliss excess (EW-11 (Ewing's Sarcoma) [5]) was -0.0557 and the Bliss excess (GAMG (Glioblastoma) [6]) was 0.182. For the same compound, the Bliss excess [7] was 0.0878, the Bliss excess [8] was 0.0507 and the Bliss excess (KS-1 (Glioblastoma) [9]) was 0.0304. The Bliss excess [10] was 0.0075, the Bliss excess [11] was 0.0301 and the Bliss excess (LOXIMVI (Melanoma) [12]) was -0.0122. It also gave a Bliss excess [13] of 0.0948, a Bliss excess (MPP-89 (Mesothelioma) [14]) of 0.0014 and a Bliss excess [15] of 0.0346. The Bliss excess [16] was 0.0627, the Bliss excess [17] was 0.105 and the Bliss excess [18] was -0.103. It also gave a Bliss excess [19] of 0.0307, a Bliss excess [20] of 0.164 and a Bliss excess [21] of 0.0401. The Bliss excess [22] was 0.017, the Bliss excess [23] was 0.0439 and the “combination Emax” value (A673 (Ewing's Sarcoma) [24]) was 0.946. The “combination Emax” value [25] was 1, the “combination Emax” value (CAL-72 (Osteosarcoma) [26]) was 0.72 and the “combination Emax” value [27] was 1. The “combination Emax” value (EW-11 (Ewing's Sarcoma) [28]) was 0.854, the “combination Emax” value (GAMG (Glioblastoma) [29]) was 0.892 and the “combination Emax” value [30] was 0.634. The “combination Emax” value [31] was 0.792, the “combination Emax” value (KS-1 (Glioblastoma) [32]) was 0.5 and the “combination Emax” value [33] was 0.19. For the same compound, the “combination Emax” value [34] was 0.882, the “combination Emax” value (LOXIMVI (Melanoma) [35]) was 0.881 and the “combination Emax” value [36] was 0.759. The “combination Emax” value (MPP-89 (Mesothelioma) [37]) was 0.656, the “combination Emax” value [38] was 1 and the “combination Emax” value [39] was 0.685. The “combination Emax” value [40] was 0.956, the “combination Emax” value [41] was 1 and the “combination Emax” value [42] was 0.515. The “combination Emax” value [43] was 0.676, the “combination Emax” value [44] was 0.457 and the “combination Emax” value [45] was 0.993. For the same compound, the “combination Emax” value [46] was 0.655.
C=CCn1c(=O)c2cnc(Nc3ccc(N4CCN(C)CC4)cc3)nc2n1-c1cccc(C(C)(C)O)n1 [AZD1775] + Nc1ccn([C@@H]2O[C@H](CO)[C@@H](O)C2(F)F)c(=O)n1 [Gemcitabine] (first compound max 1 µM, partner max 0.3 µM) gave a Bliss excess (A673 (Ewing's Sarcoma) [1]) of 0.039, a Bliss excess [2] of 0.0778 and a Bliss excess (CAL-72 (Osteosarcoma) [3]) of -0.0796. The Bliss excess [4] was 0.0774, the Bliss excess (EW-11 (Ewing's Sarcoma) [5]) was -0.0613 and the Bliss excess (GAMG (Glioblastoma) [6]) was 0.0684. The Bliss excess [7] was -0.0316, the Bliss excess [8] was 0.0536 and the Bliss excess (KS-1 (Glioblastoma) [9]) was 0.0304. For the same compound, the Bliss excess [11] was 0.0746, the Bliss excess (LOXIMVI (Melanoma) [12]) was -0.0118 and the Bliss excess [13] was -0.0068. It also gave a Bliss excess (MPP-89 (Mesothelioma) [14]) of 0.0505, a Bliss excess [15] of 0.0443 and a Bliss excess [16] of 0.0364. It also gave a Bliss excess [17] of 0.0585, a Bliss excess [18] of -0.013 and a Bliss excess [19] of -0.0186. It also gave a Bliss excess [20] of 0.0838, a Bliss excess [21] of -0.02 and a Bliss excess [22] of -0.0035. The Bliss excess [23] was 0.109, the “combination Emax” value (A673 (Ewing's Sarcoma) [24]) was 0.937 and the “combination Emax” value [25] was 1. For the same compound, the “combination Emax” value (CAL-72 (Osteosarcoma) [26]) was 0.716, the “combination Emax” value [27] was 1 and the “combination Emax” value (EW-11 (Ewing's Sarcoma) [28]) was 0.758. For the same compound, the “combination Emax” value (GAMG (Glioblastoma) [29]) was 0.805, the “combination Emax” value [30] was 0.574 and the “combination Emax” value [31] was 0.805. For the same compound, the “combination Emax” value (KS-1 (Glioblastoma) [32]) was 0.5, the “combination Emax” value [33] was 0.316 and the “combination Emax” value [34] was 0.886. For the same compound, the “combination Emax” value (LOXIMVI (Melanoma) [35]) was 0.797, the “combination Emax” value [36] was 0.68 and the “combination Emax” value (MPP-89 (Mesothelioma) [37]) was 0.599. For the same compound, the “combination Emax” value [38] was 0.951, the “combination Emax” value [39] was 0.692 and the “combination Emax” value [40] was 0.996. The “combination Emax” value [41] was 0.998, the “combination Emax” value [42] was 0.426 and the “combination Emax” value [43] was 0.755. The “combination Emax” value [44] was 0.454, the “combination Emax” value [45] was 0.987 and the “combination Emax” value [46] was 0.643.
